Holding throughout (format): in vivo
Assay [1] has as its system mosquitoes. The assay is described as follows: Mosquito Magnet Liberty trap field test with porous frit, Danbury, Conn. The following applies: 1 gram on porous frit, 20-30 mg/day release. As for the experimental part: Tests were conducted with the Mosquito Magnet Liberty model traps manufactured by American Biophysics Corp. Traps were spaced 65-70 feet apart at the edge of a wetland in Danbury, Conn., at least 25 feet from any buildings. 1 gram of test chemical was added to a clean porous frit of the type normally used in the trap, releasing approximately 20-30 mg/day. In the first test, racemic 1-octen-3-ol and (R)-(-)-1-octen-3-ol were rotated among four traps over 8 days. In the second test, (S)-(+)-1-octen-3-ol and no treatment were rotated between three traps over nine days.

Assay [2] relates to mosquitoes. Kind of assay: CO2 fan trap (John W. Hock model 1012) field test with wax lures, Danbury, Conn. The note with it: wax lure, approx. 0.17 mg/hour release, CO2 approx. 140 ml/minute, average of four three-day cycles. The protocol: The following tests were conducted in Connecticut in September 2004. Mosquito traps model 1012 manufactured by John W. Hock Company in Gainesville, Fla. were used in these experiments. The traps use a stream of CO2 directed in the vicinity of a collection bag, with a fan used to blow mosquitoes into the bag. The light supplied with the trap was turned off. The traps were spaced 65-70 feet apart at the edge of a wetland in Danbury, Conn., at least 25 feet from any buildings. The (R) and (S)-1-octen-3-ol was incorporated into a wax lure of the type manufactured by BioSensory, Inc. and placed near a stream of CO2 which was being released at a rate of approximately 140 ml/minute. The traps were operated from approximately 4:00PM until 9:00AM the next day. Daytime temperatures were 70-75° F. during the trials. Average weight loss from the wax lures during the test was approximately 4 mg/day, or 0.17 mg/hour. Three traps were used, with either (R)-1-Octen-3-ol, (S)-1-Octen-3-ol, or no treatment, rotated among the traps over a three-day cycle. Four complete cycles were performed and the results for each treatment were averaged.
The traps with no attractant were considered as the baseline catch of mosquitoes and the results of the catches with the isomers were compared to this baseline value.

The test system of assay [3] is mosquitoes. The assay is described as follows: Mosquito Magnet Pro trap field test of 1-decen-3-ol enantiomers, Florida. The following applies: 1 gram in fibrous lure; for total mosquitoes caught: lures rotated between traps over nine days. As for the experimental part:
The tests were conducted in Florida using Mosquito Magnet Pro mosquito traps manufactured by American Biophysics, rotating the lures between traps over a period of nine days, using 1 gram of each test material in a fibrous lure of the type normally used in the traps.

Assay [4] concerns mosquitoes. Kind of assay: John W. Hock fan-driven CO2 trap field test, small amount (R) vs large amount racemic, Danbury Conn. The following applies: 14 days; for average mosquitoes caught: CO2 150 ml/min. As for the experimental part: A test similar to example 5 was conducted in Danbury Conn. using fan driven-traps manufactured by John W. Hock Company in Gainesville Fla. using 150 ml/min CO2. To compare the attractiveness of a large amount of racemic 1-octen-3-ol to a small amount of (R)-(-)-1-octen-3-ol, one lure contained 50 mg of (R)-(-)-1-octen-3-ol diluted in 1.5 ml diethyl phthalate, releasing 1.5 mg/day or less was evaluated against a lure containing 1660 mg of racemic 1-octen-3-ol (830 mg of each enantiomer) diluted in 1.5 ml of diethyl phthalate, and releasing approximately 40 mg of 1-octen-3-ol/day. After rotation between the two traps over 14 days, the lure with the 1660 mg of racemic octenol caught an average of 9.4 mosquitoes, while the lure containing 50 mg of (R)-(-)-1-octen-3-ol caught an average of 11.8 mosquitoes, representing an increase of 26%.

For assay [5], the system named is mosquitoes. Kind of assay: Mosquito Magnet Liberty trap field test, effect of (S) isomer on (R) isomer, Danbury Conn. The note with it: 14 days. The protocol:
A test to compare the effect of the presence of (S)-(+)-1-octen-3-ol on the efficacy of (R)-(-)-1-octen-3-ol was conducted in Danbury Conn. One lure contained 200 mg of (R)-(-)-1-octen-3-ol diluted in diethyl phthalate to slow release to under 1.7 mg/day. The other lure was identical except that it also contained 200 mg of (S)-(+)-1-octen-3-ol (equivalent to 400 mg of racemic 1-octen-3-ol). The lures were rotated over 14 days between two American Biophysics Mosquito Magnet Liberty traps. The lure containing the 200 mg of (R)-(-)-1-octen-3-ol plus 200 mg (S)-(+)-1-octen-3-ol caught an average of 5.6 mosquitoes/day, while the lure containing 200 mg of (R)-(-)-1-octen-3-ol caught an average of 8.1 mosquitoes daily, representing an increase in efficacy of 45%.

In assay [6] the test system is mosquitoes. Kind of assay: Mosquito Magnet Pro trap field test with or without ammonia source, Gainesville, Fla. The following applies: lure with 230 mg (R)-(-)-1-octen-3-ol; traps producing carbon dioxide and heat; twenty-day cycle.
Experimental: The test was conducted in Gainesville, Fla. using Mosquito Magnet Pro model mosquito traps manufactured by American Biophysics Corp. that produced carbon dioxide and heat. The traps were provided with either lures having 230 mg (R)-(-)-1-octen-3-ol isomer or lures with 230 mg (R)-(-)-1-octen-3-ol isomer in combination with a source of ammonia provided by a lure containing ammonium bicarbonate in a controlled release polymer matrix, Bactrocera (Dacus) olae, Product code BF L080, provided by AgriSense-BCS Limited, Taffs Mead Road, Treforest Industrial Estate, Pontypridd, CF37 5SU, UK. The traps were rotated between the locations for a twenty-day cycle.
Assay [7] deals with mosquitoes. The assay is described as follows: Mosquito Magnet Liberty trap field test with or without ammonium bicarbonate lure, Redding, Conn. The note with it: lure with 800 mg (R)-(-)-1-octen-3-ol in waxy carrier; rotated daily for 15 days. The protocol:
A test similar to Example 3 was conducted in Redding, Conn., employing Mosquito Magnet Liberty traps rotated daily for 15 days. One trap was provided with a lure containing 470 mg (R)-(-)-1-octen-3-ol isomer in a waxy carrier plus 5 grams of ammonium bicarbonate provided by a lure containing ammonium bicarbonate in a controlled release polymer matrix, provided by […]-BCS Limited ([…]-BCS Limited […] Road, Treforest Industrial Estate, Pontypridd, CF37 5SU UK) and the second trap was provided with a lure containing 800 mg (R)-(-)-1-octen-3-ol isomer in the waxy carrier. The trap with the 800 mg (R)-(-)-1-octen-3-ol isomer attracted an average of 3.8 mosquitoes daily whereas the traps with only 470 mg (R)-(-)-1-octen-3-ol isomer plus the ammonium carbonate attracted average of 6.9 mosquitoes daily, an average increase of about 82%.

Structures are written as SMILES.

As for `C=C[C@@H](O)CCCCC` [(S)-(+)-1-octen-3-ol, reference compound], the “fewer mosquitoes caught than the trap with no attractant” value in the assay with mosquitoes [1] (second test, three traps over nine days) is reported as 37%. Also, in the assay with mosquitoes [2], the “more mosquitoes captured than the baseline (traps with no attractant)” value amounted to 35%.

The molecule `C=C[C@@H](O)CCCCCCC` [(S)-(+)-1-decen-3-ol, reference compound] returned a total mosquitoes caught in the assay on mosquitoes [3] of 47 mosquitoes.

`C=CC(O)CCCCC` (racemic) [racemic octenol, 1-octen-3-ol, reference compound] registered an average mosquitoes caught in the assay with mosquitoes [4] (lure with 1660 mg racemic in 1.5 ml diethyl phthalate, approx. 40 mg/day release) of 9.4 mosquitoes.

In the case of `C=C[C@H](O)CCCCCCC` [(R)-(-)-1-decen-3-ol], the total mosquitoes caught with mosquitoes [3] amounted to 89 mosquitoes. For the same molecule, in the assay with mosquitoes [3] (nine days), the “improvement in catch vs (S)-(+)-1-decen-3-ol” value came out at 89%.

With `C=C[C@H](O)CCCCC` [(R)-(-)-1-octen-3-ol], the “more mosquitoes caught than trap with 50:50 racemic mixture of 1-octen-3-ol” value in the assay on mosquitoes [1] (first test, four traps over 8 days) worked out at 18%. For the same molecule, the “increase in catch vs lure with 1660 mg racemic octenol” value in the assay on mosquitoes [4] (50 mg (R) isomer) turned out to be 26%. Also, the average mosquitoes caught with mosquitoes [4] (lure with 50 mg (R) in 1.5 ml diethyl phthalate, 1.5 mg/day or less release) turned out to be 11.8 mosquitoes; in the assay on mosquitoes [5] (lure with 200 mg (R)-(-)-1-octen-3-ol in diethyl phthalate, release under 1.7 mg/day) it was 8.1 mosquitoes daily. Moreover, the “increase in efficacy vs lure also containing 200 mg (S)-(+)-1-octen-3-ol” value in the assay with mosquitoes [5] (200 mg (R) isomer) is given as 45%. Further, the “more mosquitoes captured than the baseline (traps with no attractant)” value with mosquitoes [2] was found to be 88%. In the assay with mosquitoes [6], the “average number of mosquitoes attracted daily” value is listed as 14 mosquitoes. Also, in the assay with mosquitoes [7], the “average mosquitoes attracted daily” value is 3.8 mosquitoes daily.

The record behind these values is patent publication US20060193881A1, “Method and compositions for attracting mosquitoes employing (R)-(-) isomers of 1-alken-3-ols” (Bedoukian Research, Inc., priority 2005, published 2006).
